PubChem BioAssay AID2060489 (Molecular Pharmacology Branch, DTP, NCI, 2025)

Test system: 922993-354-T-J3-PDC complex spheroids, viability
Assay: Anticancer human tumor 922993-354-T-J3-PDC patient-derived endometrial carcinoma cell line growth inhibition [GQUAD]
Details: for IC50: curve of first compound; for viability, T/C: stronger effect = lower value; active = viability on the fitted dose curve at most 10% of control; inactive = the rest
How it was run: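 Multi-cell-type spheroids of tumor cells with HUVEC and mesenchymal stem cells, treated with drug combinations. Concentrations descend in half-log steps from near clinical Cmax, or from 10 microM where Cmax is unknown; viability read-out.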
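Also: spheroids exposed to compounds for seven days.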
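For viability, T/C in this document: 100% = DMSO vehicle control viability.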

CC(=O)O[C@H]1C(=O)[C@@]2(C)[C@H]([C@H](OC(=O)c3ccccc3)[C@]3(O)C[C@H](OC(=O)[C@H](O)[C@@H](NC(=O)c4ccccc4)c4ccccc4)C(C)=C1C3(C)C)[C@]1(OC(C)=O)CO[C@@H]1C[C@@H]2O + Cc1[nH]c2ccc(F)cc2c1-c1nc2c3cccnc3c3ncccc3c2[nH]1
inactive: viability, T/C (second compound 0.0316 µM, first compound 0.0316 µM) 109% | viability, T/C (second compound 0.0316 µM, first compound 0.1 µM) 84.6% | viability, T/C (second compound 0.0316 µM, first compound 0.316 µM) 124% | viability, T/C (second compound 0.0316 µM, first compound 1 µM) 115% | viability, T/C (second compound 0.0316 µM, first compound 3.16 µM) 68.4% | viability, T/C (second compound 0.0316 µM, first compound 10 µM) 40.5% | viability, T/C (second compound 0.1 µM, first compound 0.0316 µM) 124% | viability, T/C (second compound 0.1 µM, first compound 0.1 µM) 87.3% | viability, T/C (second compound 0.1 µM, first compound 0.316 µM) 96.6% | viability, T/C (second compound 0.1 µM, first compound 1 µM) 119% | viability, T/C (second compound 0.1 µM, first compound 3.16 µM) 75.7% | viability, T/C (second compound 0.1 µM, first compound 10 µM) 49.6% | viability, T/C (second compound 0.316 µM, first compound 0.0316 µM) 98.8% | viability, T/C (second compound 0.316 µM, first compound 0.1 µM) 90.4% | viability, T/C (second compound 0.316 µM, first compound 0.316 µM) 136% | viability, T/C (second compound 0.316 µM, first compound 1 µM) 89.2% | viability, T/C (second compound 0.316 µM, first compound 3.16 µM) 88.1% | viability, T/C (second compound 0.316 µM, first compound 10 µM) 50.3% | viability, T/C (second compound 1 µM, first compound 0.0316 µM) 103% | viability, T/C (second compound 1 µM, first compound 0.1 µM) 126% | viability, T/C (second compound 1 µM, first compound 0.316 µM) 119% | viability, T/C (second compound 1 µM, first compound 1 µM) 109% | viability, T/C (second compound 1 µM, first compound 3.16 µM) 81.3% | viability, T/C (second compound 1 µM, first compound 10 µM) 47.8% | viability, T/C (second compound 3.16 µM, first compound 0.0316 µM) 104% | viability, T/C (second compound 3.16 µM, first compound 0.1 µM) 115% | viability, T/C (second compound 3.16 µM, first compound 0.316 µM) 124% | viability, T/C (second compound 3.16 µM, first compound 1 µM) 136% | viability, T/C (second compound 3.16 µM, first compound 3.16 µM) 93.6% | viability, T/C (second compound 3.16 µM, first compound 10 µM) 40.9% | viability, T/C (second compound 10 µM, first compound 0.0316 µM) 97.7% | viability, T/C (second compound 10 µM, first compound 0.1 µM) 94% | viability, T/C (second compound 10 µM, first compound 0.316 µM) 117% | viability, T/C (second compound 10 µM, first compound 1 µM) 105% | viability, T/C (second compound 10 µM, first compound 3.16 µM) 86.2% | viability, T/C (second compound 10 µM, first compound 10 µM) 57.7%
9.27 µM: IC50 (second compound 1 µM)
6.76 µM: IC50 (second compound 0.0316 µM)
8.19 µM: IC50 (second compound 3.16 µM)
> 10 µM: IC50 (second compound 0.1 µM) | IC50 (second compound 0.316 µM) | IC50 (second compound 10 µM)
